Laboratory results as given in US8623859B2, “Bradykinin B1 antagonists” (Evotec AG, priority 2008, dated 2014).
Counter-ions that a name gives are not always drawn.

These compounds were tested against T1, human B1 (Homo sapiens, UniProt P46663) (assay: Calcium flux assay for Bradykinin B1 antagonist, CHO-K1 cell line expressing human B1). Conditions: CHO-K1 cells expressing human B1, agonist Lys-(Des-Arg)-Bradykinin, read-out: Potency (IC50 value against human B1).
T1 construct: host or cells: CHO-K1
T1 sequence (P46663 1-353): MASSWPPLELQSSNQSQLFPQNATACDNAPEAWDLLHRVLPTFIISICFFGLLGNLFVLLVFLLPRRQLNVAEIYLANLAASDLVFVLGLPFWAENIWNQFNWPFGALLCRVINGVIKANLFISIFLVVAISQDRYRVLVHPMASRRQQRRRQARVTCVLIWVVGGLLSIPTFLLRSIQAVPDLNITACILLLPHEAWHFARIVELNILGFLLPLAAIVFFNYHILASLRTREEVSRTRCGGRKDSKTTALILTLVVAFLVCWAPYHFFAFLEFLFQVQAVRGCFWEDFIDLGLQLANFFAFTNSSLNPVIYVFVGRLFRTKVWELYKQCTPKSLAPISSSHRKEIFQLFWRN
Assay type: cell-based
Method in brief: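 Inhibition of B1 agonist-evoked intracellular Ca2+ rise was followed by continuous fluorescence at 538 nm, with integrated, background-normalized signals plotted versus log compound concentration. Test compounds (eight 10-fold dilutions, triplicate, 1% DMSO final) were added 30 min at 25° C beforehand to Fluo-4AM-loaded human B1 CHO-K1 cells in pH 7.4 assay buffer.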
`COc1cc(C)c(S(=O)(=O)N(Cc2noc(C(=O)N3CCN(CC4CCCN(C)C4)CC3)n2)C2CC2)c(C)c1` (centres unmarked) [Ex 315, N-Cyclopropyl-4-methoxy-2,6-dimethyl-N-{[5-({4-[(1-methylpiperidin-3-yl)methyl]piperazin-1-yl}carbonyl)-1,2,4-oxadiazol-3-yl]methyl}benzenesulfonamide] showed an IC50 of 10 to 100 nM.
`COc1cc(C)c(S(=O)(=O)N(Cc2noc(C(=O)N3CCN(CCCN(C)C)CC3)n2)C2CC2)c(C)c1` [Ex 316, N-Cyclopropyl-N-{[5-([4-[3-(dimethylamino)propyl]piperazin-1-yl]carbonyl)-1,2,4-oxadiazol-3-yl]methyl}-4-methoxy-2,6-dimethylbenzenesulfonamide] showed an IC50 of 10 to 100 nM.
`COc1cc(C)c(S(=O)(=O)N(Cc2noc(C(=O)N3CCN(CCCN4CCCC4)CC3)n2)C2CC2)c(C)c1` [Ex 317, N-Cyclopropyl-4-methoxy-2,6-dimethyl-N-[(5-{[4-(3-pyrrolidin-1-ylpropyl)piperazin-1-yl]carbonyl}-1,2,4-oxadiazol-3-yl)methyl]benzenesulfonamide] showed an IC50 of under 10 nM.
`COc1cc(C)c(S(=O)(=O)N(Cc2noc(C(=O)N3CCN(CCN4CCCC4)CC3)n2)C2CC2)c(C)c1` [Ex 318, N-Cyclopropyl-4-methoxy-2,6-dimethyl-N-[(5-{[4-(2-pyrrolidin-1-ylethyl)piperazin-1-yl]carbonyl}-1,2,4-oxadiazol-3-yl)methyl]benzenesulfonamide] showed an IC50 of 10 to 100 nM.
Work on `COc1cc(C)c(S(=O)(=O)N(C)Cc2noc(C(=O)N3CCN(CCCCN(C)C)CC3)n2)c(C)c1` [Ex 319, N-{[5-({4-[4-(Dimethylamino)butyl]piperazin-1-yl}carbonyl)-1,2,4-oxadiazol-3-yl]methyl}-4-methoxy-N,2,6-trimethylbenzenesulfonamide trifluoroacetate] yielded an IC50 of 100 to 1000 nM.
For `COc1cc(C)c(S(=O)(=O)N(Cc2noc(C(=O)N3CCN(CCCCN(C)C)CC3)n2)C2CC2)c(C)c1` [Ex 320, N-Cyclopropyl-N-{[5-({4-[4-(dimethylamino)butyl]piperazin-1-yl}carbonyl)-1,2,4-oxadiazol-3-yl]methyl}-4-methoxy-2,6-dimethylbenzenesulfonamide trifluoroacetate], the IC50 was 100 to 1000 nM.
For `COc1cc(C)c(S(=O)(=O)N(C)Cc2nc(C(=O)N3CCN(CC4CCN(C)CC4)CC3)no2)c(C)c1` [Ex 321, 4-Methoxy-N,2,6-trimethyl-N-{[3-({4-[(1-methylpiperidin-4-yl)methyl]piperazin-1-yl}carbonyl)-1,2,4-oxadiazol-5-yl]methyl}benzenesulfonamide], the IC50 was 100 to 1000 nM.
In the case of `COc1cc(C)c(S(=O)(=O)N(C)Cc2nc(C(=O)N3CCN(CCCCN(C)C)CC3)no2)c(C)c1` [Ex 322, N-{[3-({4-[4-(Dimethylamino)butyl]piperazin-1-yl}carbonyl)-1,2,4-oxadiazol-5-yl]methyl}-4-methoxy-N,2,6-trimethylbenzenesulfonamide trifluoroacetate], the IC50 is reported as 100 to 1000 nM.
Work on `COc1cc(C)c(S(=O)(=O)N(C)Cc2nc(C(=O)N3CCN(Cc4cccnc4)CC3)no2)c(C)c1` [Ex 323, 4-Methoxy-N,2,6-trimethyl-N-[(3-{[4-(pyridin-3-ylmethyl)piperazin-1-yl]carbonyl}-1,2,4-oxadiazol-5-yl)methyl]benzenesulfonamide] yielded an IC50 of 100 to 1000 nM.
For `COc1cc(C)c(S(=O)(=O)N(C)Cc2nc(C(=O)N(C)Cc3cccc(CN4CCCC4)c3)no2)c(C)c1` [Ex 324, 5-({[(4-Methoxy-2,6-dimethylphenyl)sulfonyl](methyl)amino}methyl)-N-methyl-N-[3-(pyrrolidin-1-ylmethyl)benzyl]-1,2,4-oxadiazole-3-carboxamide trifluoroacetate], the IC50 was 10 to 100 nM.
`COc1cc(C)c(S(=O)(=O)N(C)Cc2nc(C(=O)N3CCN(CCCN4CCCC4)CC3)no2)c(C)c1` [Ex 325, 4-Methoxy-N,2,6-trimethyl-N-[(3-{[4-(3-pyrrolidin-1-ylpropyl)piperazin-1-yl]carbonyl}-1,2,4-oxadiazol-5-yl)methyl]benzenesulfonamide] showed an IC50 of 10 to 100 nM.
`COc1cc(C)c(S(=O)(=O)N(C)Cc2nnc(C(=O)N3CCN(CCN4CCCC4)CC3)s2)c(C)c1` [Ex 326, 4-Methoxy-N,2,6-trimethyl-N-[(5-{[4-(2-pyrrolidin-1-ylethyl)piperazin-1-yl]carbonyl}-1,3,4-thiadiazol-2-yl)methyl]benzenesulfonamide] gave an IC50 of 100 to 1000 nM.
Work on `COc1cc(C)c(S(=O)(=O)N(C)Cc2nnc(C(=O)N3CCN(CCCN4CCCC4)CC3)s2)c(C)c1` [Ex 327, 4-Methoxy-N,2,6-trimethyl-N-[(5-{[4-(3-pyrrolidin-1-ylpropyl)piperazin-1-yl]carbonyl}-1,3,4-thiadiazol-2-yl)methyl]benzenesulfonamide] yielded an IC50 of 100 to 1000 nM.
`COc1cc(C)c(S(=O)(=O)N(C)Cc2nnc(C(=O)N(C)CCc3ccc(C4=NCCN4)cc3)s2)c(C)c1` [Ex 328, N-{2-[4-(4,5-Dihydro-1H-imidazol-2-yl)phenyl]ethyl}-5-({[(4-methoxy-2,6-dimethylphenyl)sulfonyl](methyl)amino}methyl)-N-methyl-1,3,4-thiadiazole-2-carboxamide] gave an IC50 of under 10 nM.
In the case of `COc1cc(C)c(S(=O)(=O)N(C)Cc2nnc(C(=O)N(C)Cc3ccc(CN4CCCC4)cc3)s2)c(C)c1` [Ex 329, 5-({[(4-Methoxy-2,6-dimethylphenyl)sulfonyl](methyl)amino}methyl)-N-methyl-N-[4-(pyrrolidin-1-ylmethyl)benzyl]-1,3,4-thiadiazole-2-carboxamide], the IC50 is reported as 100 to 1000 nM.
`COc1cc(C)c(S(=O)(=O)N(C)Cc2nnc(C(=O)NCCc3ccc(C4=NCCN4)cc3)s2)c(C)c1` [Ex 330, N-{2-[4-(4,5-Dihydro-1H-imidazol-2-yl)phenyl]ethyl}-5-({[(4-methoxy-2,6-dimethylphenyl)sulfonyl](methyl)amino}methyl)-1,3,4-thiadiazole-2-carboxamide trifluoroacetamide] showed an IC50 of under 10 nM.
Work on `COc1cc(C)c(S(=O)(=O)N(C)Cc2nnc(C(=O)N(C)Cc3cccc(CN4CCCC4)c3)s2)c(C)c1` [Ex 331, 5-({[(4-Methoxy-2,6-dimethylphenyl)sulfonyl](methyl)amino}methyl)-N-methyl-N-[3-(pyrrolidin-1-ylmethyl)benzyl]-1,3,4-thiadiazole-2-carboxamide trifluoroacetate] yielded an IC50 of 10 to 100 nM.
With `COc1cc(C)c(S(=O)(=O)N(C)Cc2nnc(C(=O)N3CCN(C4CCN(C)CC4)CC3)s2)c(C)c1` [Ex 332, 4-Methoxy-N,2,6-trimethyl-N-[(5-{[4-(1-methylpiperidin-4-yl)piperazin-1-yl]carbonyl}-1,3,4-thiadiazol-2-yl)methyl]benzenesulfonamide trifluoroacetamide] the IC50 was 100 to 1000 nM.
`COc1cc(C)c(S(=O)(=O)N(C)Cc2nnc(C(=O)N3CCN(CC4CCN(C)CC4)CC3)s2)c(C)c1` [Ex 333, 4-Methoxy-N,2,6-trimethyl-N-{[5-({4-[(1-methylpiperidin-4-yl)methyl]piperazin-1-yl}carbonyl)-1,3,4-thiadiazol-2-yl]methyl}benzenesulfonamide] showed an IC50 of 100 to 1000 nM.
With `COc1cc(C)c(S(=O)(=O)N(Cc2nnc(C(=O)N3CCN(C4CCN(C)CC4)CC3)s2)C2CC2)c(C)c1` [Ex 334, N-Cyclopropyl-4-methoxy-2,6-dimethyl-N-[(5-{[4-(1-methylpiperidin-4-yl)piperazin-1-yl]carbonyl}-1,3,4-thiadiazol-2-yl)methyl]benzenesulfonamide] the IC50 was under 10 nM.
